Measurements published in publication PMC12136037, “Type II kinase inhibitors that target Parkinson’s disease–associated LRRK2” (Science Advances, 2025).
“And” between values parts separate entries of the source, which are not always exact repeats. Equal values may be shown once.

Columns and labels:
LRRK2^KW = biological target: T1, LRRK2^KW (Homo sapiens, UniProt Q5S007); experiment: DSF thermal stabilization of LRRK2^KW; assay type: binding; conditions: for ∆Tm (K): DSF, LRRK2^KW, 10 μM inhibitor
T1 construct: LRRK2 R1847 to E2527; His6-Z-tag (TEV cleavable) (N, cleaved yes); host or cells: Sf9 insect cells (baculovirus)
T1 sequence (Q5S007 1847-2527): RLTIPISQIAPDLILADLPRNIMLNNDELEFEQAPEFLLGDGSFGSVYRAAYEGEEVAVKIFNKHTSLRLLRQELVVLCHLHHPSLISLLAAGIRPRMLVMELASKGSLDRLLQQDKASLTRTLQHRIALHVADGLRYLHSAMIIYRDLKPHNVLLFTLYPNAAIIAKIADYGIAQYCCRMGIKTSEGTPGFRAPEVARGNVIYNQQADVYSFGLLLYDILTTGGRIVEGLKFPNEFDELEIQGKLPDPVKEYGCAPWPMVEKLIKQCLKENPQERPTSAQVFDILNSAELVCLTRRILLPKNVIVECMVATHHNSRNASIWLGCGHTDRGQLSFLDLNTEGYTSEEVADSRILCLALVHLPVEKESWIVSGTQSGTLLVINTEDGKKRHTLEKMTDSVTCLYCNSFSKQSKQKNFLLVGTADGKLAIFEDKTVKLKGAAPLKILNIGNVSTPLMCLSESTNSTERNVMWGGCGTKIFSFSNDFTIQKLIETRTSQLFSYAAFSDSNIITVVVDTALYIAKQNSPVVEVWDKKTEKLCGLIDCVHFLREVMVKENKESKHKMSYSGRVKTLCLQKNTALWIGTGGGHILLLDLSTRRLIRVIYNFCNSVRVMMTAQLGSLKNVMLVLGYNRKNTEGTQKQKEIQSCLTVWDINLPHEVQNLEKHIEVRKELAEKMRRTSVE
In short: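 DSF on 4 μM LRRK2^KW in 20 mM Hepes pH 7.4, 150 mM NaCl, 0.5 mM TCEP, 0.5% glycerol, 20 μM GDP, 2.5 mM MgCl2 with SYPRO Orange; inhibitor at 10 μM. Tm was taken as the minimum of the first derivative of fluorescence versus temperature, relative to control.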

[1] = biological target: T2, ~100 representative kinases (Homo sapiens, UniProt Q8TD08); experiment: DSF 100 kinase selectivity screen; assay type: binding; conditions: protein MAPK15; average of three replicates;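 further: compound tested at 20 µM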
T2 construct: Recombinant protein kinase domains with a concentration of 2 μM
T2 sequence (Q8TD08 1-544): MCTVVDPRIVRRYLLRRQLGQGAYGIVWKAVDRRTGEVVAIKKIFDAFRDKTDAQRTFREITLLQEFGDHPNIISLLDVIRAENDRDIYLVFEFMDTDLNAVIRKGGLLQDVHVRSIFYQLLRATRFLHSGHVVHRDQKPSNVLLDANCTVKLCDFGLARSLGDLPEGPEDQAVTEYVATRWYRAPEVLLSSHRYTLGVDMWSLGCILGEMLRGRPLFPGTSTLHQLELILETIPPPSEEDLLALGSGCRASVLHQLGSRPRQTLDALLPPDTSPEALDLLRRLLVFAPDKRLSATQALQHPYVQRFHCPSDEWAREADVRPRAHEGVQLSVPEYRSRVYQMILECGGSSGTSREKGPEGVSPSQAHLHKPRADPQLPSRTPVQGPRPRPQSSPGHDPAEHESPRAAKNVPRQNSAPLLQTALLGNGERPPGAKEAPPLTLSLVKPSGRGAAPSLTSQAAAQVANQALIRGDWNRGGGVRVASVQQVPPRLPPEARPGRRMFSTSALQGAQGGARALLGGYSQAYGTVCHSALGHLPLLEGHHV
In short: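 Each kinase domain, at 2 μM, is mixed with 20 μM test compound and SYPRO Orange in Hepes (20 mM, pH 7.5) with 500 mM NaCl. Temperature is then raised at 3°C/min and fluorescence-monitored unfolding yields the melting temperature change, ΔTm in degrees Celsius.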

| Structure (SMILES) | ∆Tm (K) (LRRK2^KW) | dTm [1] | further results |
| --- | --- | --- | --- |
| Cc1cc(NC(=O)C2(C(=O)Nc3cccc(-c4c[nH]c5ncnc(N6CCOCC6)c45)c3)CC2)ccc1F [Compound 20] | 13.3 K | 12.42 K | – |
| CCNc1nc(Nc2cc(F)c(C(=O)N3CCOCC3)cc2OC)ncc1C(F)(F)F [GNE-7915] | – | 2.03 K | – |
| CC(C)(C)c1cccc(NC(=O)C2(C(=O)Nc3cccc(-c4c[nH]c5ncnc(N6CCOCC6)c45)c3)CC2)c1 [Compound 22] | 12.0 K | 6.32 K | – |
| O=C(Nc1cccc(-c2c[nH]c3ncnc(N4CCOCC4)c23)c1)C1(C(=O)Nc2ccc(F)cc2F)CC1 [Compound 23] | 9.2 K | 6.01 K | – |
| CC(=O)N1CCN(c2nc(Cl)nc3[nH]cc(-c4cccc(NC(=O)Nc5cc(C(C)(C)C)nn5-c5ccc(C)cc5)c4)c23)CC1 [Compound 31] | 18.0 K | 8.84 K | – |
| O=C(Nc1cc(F)cc(Br)c1)C1(C(=O)Nc2cccc(-c3c[nH]c4ncnc(N5CCOCC5)c34)c2)CC1 [Compound 27] | 10.2 K | 4.52 K | – |
| Cc1ccc(C(=O)Nc2ccc(CN3CCN(C)CC3)c(C(F)(F)F)c2)cc1C#Cc1cnc2[nH]ncc2c1 [GZD-824, reference compound] | 21.2 ± 2.5 K | 5.29 K | – |
| O=C(Nc1ccccc1)C1(C(=O)Nc2cccc(-c3c[nH]c4ncnc(N5CCOCC5)c34)c2)CC1 [Compound 12] | 9.3 K | 8.68 K | – |
| CNC(=O)c1cc(Oc2ccc(NC(=O)Nc3cc(C(C)(C)C)nn3-c3ccc4ncccc4c3)c(F)c2)ccn1 [Rebastinib, reference compound] | 18.5 K and 18.5 ± 0.7 K | 14.70 K | – |
| COc1cc2c(Oc3ccc(NC(=O)C4(C(=O)Nc5ccc(F)cc5)CC4)cc3F)ccnc2cc1OCCCN1CCOCC1 [Foretinib, reference compound] | 12.1 ± 0.1 K | 8.58 K | dTm LRRK2(KW) [K] (LRRK2^KW; screen of 31 type-II inhibitors, Table S1): 11.5 K |
| Cc1ccc(NC(=O)C2(C(=O)Nc3cccc(-c4c[nH]c5ncnc(N6CCOCC6)c45)c3)CC2)cc1 [Compound 14] | 9.1 K | 5.81 K | – |
| Cc1ccc(C(=O)Nc2ccc(CN3CCN(C)CC3)c(C(F)(F)F)c2)cc1C#Cc1cnc2cccnn12 [Ponatinib, reference compound] | 13.0 K | – | – |
| O=C(Nc1ccc(Cl)cc1)C1(C(=O)Nc2cccc(-c3c[nH]c4ncnc(N5CCOCC5)c34)c2)CC1 [Compound 13] | 9.5 K | 9.74 K | – |
| Cc1ccc(-n2nc(C(C)(C)C)cc2NC(=O)Nc2cccc(-c3c[nH]c4ncnc(N5CCOCC5)c34)c2)cc1 [Compound 29] | 21.0 K | 16.65 K | – |
| O=C(Nc1cccc(-c2c[nH]c3ncnc(N4CCOCC4)c23)c1)C1(C(=O)Nc2ccc(F)c(Br)c2)CC1 [Compound 19] | 14.0 K | 11.25 K | – |
| O=C(Nc1cccc(-c2c[nH]c3ncnc(N4CCOCC4)c23)c1)C1(C(=O)Nc2ccc(F)c(Cl)c2)CC1 [Compound 18] | 12.3 K | 12.35 K | – |
| COc1cc(S(C)(=O)=O)ccc1Nc1nc(N(C)C)c2c(Cl)c[nH]c2n1 [Compound 37] | – | -0.10 K | – |
| O=C(Nc1cccc(-c2c[nH]c3ncnc(N4CCOCC4)c23)c1)C1(C(=O)Nc2cc(Br)c(F)cc2F)CC1 [Compound 25] | 9.0 K | 3.06 K | – |

| Structure (SMILES) | ∆Tm (K) (LRRK2^KW) | dTm [1] | further results |
| --- | --- | --- | --- |
| Cn1cc(-c2c[nH]c3ncnc(N4CCOCC4)c23)cc1C#N [PFE-360] | – | 3.82 K | – |
| O=C(Nc1cccc(-c2c[nH]c3ncnc(N4CCOCC4)c23)c1)c1cccn(-c2ccc(F)cc2)c1=O [Compound 4] | 13.0 K | 7.29 K | – |
| Cc1ccc(C(=O)Nc2ccc(CN3CCN(C)CC3)c(C(F)(F)F)c2)cc1C#Cc1c[nH]c2ncnc(N3CCOCC3)c12 [Compound 1] | 9.5 K | 8.49 K | – |
| O=C(Nc1ccc(F)cc1)C1(C(=O)Nc2cccc(-c3c[nH]c4ncnc(N5CCOCC5)c34)c2)CC1 [Compound 2] | – | 10.01 K | – |
| Cc1cc(NC(=O)C2(C(=O)Nc3ccc(F)cc3)CC2)cc(-c2c[nH]c3ncnc(N4CCOCC4)c23)c1 [Compound 6] | 10.0 K | 5.91 K | – |
| O=C(Nc1cccc(-c2c[nH]c3ncnc(N4CCOCC4)c23)c1)C1(C(=O)Nc2ccc(F)c(Br)c2F)CC1 [Compound 26] | 10.7 K | 5.05 K | – |
| Cc1cc(F)ccc1NC(=O)C1(C(=O)Nc2cccc(-c3c[nH]c4ncnc(N5CCOCC5)c34)c2)CC1 [Compound 24] | 8.5 K | 4.07 K | – |
| CCSc1nc(NC)c2c(-c3cccc(NC(=O)Nc4cc(C(C)(C)C)nn4-c4ccc(C)cc4)c3)c[nH]c2n1 [Compound 32] | – | 3.18 K | ∆Tm (K) (LRRK2^KW; listed as 32 (RN341)): 19.9 K; ∆Tm (K) (LRRK2^KW; listed as RN341): 20 K |
| O=C(Nc1cccc(-c2c[nH]c3ncnc(N4CCOCC4)c23)c1)C1(C(=O)Nc2cccc3c2CCC3)CC1 [Compound 11] | 9.2 K | 5.24 K | – |
| CCc1ccc(NC(=O)C2(C(=O)Nc3cccc(-c4c[nH]c5ncnc(N6CCOCC6)c45)c3)CC2)cc1 [Compound 15] | 9.1 K | 5.20 K | – |
| COc1ccc(NC(=O)C2(C(=O)Nc3cccc(-c4c[nH]c5ncnc(N6CCOCC6)c45)c3)CC2)cc1 [Compound 16] | 4.3 K | 2.17 K | – |
| COc1cc(NC(=O)C2(C(=O)Nc3cccc(-c4c[nH]c5ncnc(N6CCOCC6)c45)c3)CC2)ccc1F [Compound 21] | 9.3 K | 10.35 K | – |
| Cc1ccc(-n2nc(C(C)(C)C)cc2NC(=O)Nc2cccc(-c3c[nH]c4nc(Cl)nc(N5CCOCC5)c34)c2)cc1 [Compound 30] | – | 6.72 K | ∆Tm (K) (LRRK2^KW; listed as 30 (RN277)): 18.0 K; ∆Tm (K) (LRRK2^KW; listed as RN277): 18 K |
| C[C@@H]1CN(c2cc(-c3n[nH]c4ccc(OC5(C)CC5)cc34)ncn2)C[C@H](C)O1 [MLi2] | – | -0.33 K | – |
| O=C(Nc1cccc(-c2c[nH]c3ncnc(N4CCOCC4)c23)c1)C1(C(=O)Nc2ccc(F)c(F)c2)CC1 [Compound 17] | 10.3 K | 10.37 K | – |
| CC(C)(C)c1cc(NC(=O)Nc2cccc(-c3c[nH]c4ncnc(N5CCOCC5)c34)c2)n(-c2ccc3ncccc3c2)n1 [Compound 28] | 20.0 K | 14.38 K | – |
| COc1cc(C(=O)N2CCOCC2)c(F)cc1Nc1nc(N(C)C)c2c(Cl)c[nH]c2n1 [Compound 36] | 16.0 K | 0.97 K | – |
